*1 amine or outer side, *2 acyl side, *3 side chain or, on linkers, in order; H or OH if unused. Where a SMILES comes first, the peptide text is derived from it. Bridges are numbered along the chain shown (N, C = ends). [ ]: non-standard residue; d: D form. The star is where a group is joined. ξ: configuration not given here. Phe(3-CF3) = N[C@@H](Cc1cccc(C(F)(F)F)c1)C(=O)O; Phe(4-CF3) = N[C@@H](Cc1ccc(C(F)(F)F)cc1)C(=O)O; Phe(4-COOH) = N[C@@H](Cc1ccc(C(=O)O)cc1)C(=O)O; Bip = N[C@@H](Cc1ccc(-c2ccccc2)cc1)C(=O)O; NH(CH2)14COOH = O=C(O)CCCCCCCCCCCCCCN*; Phe(3-F) = N[C@@H](Cc1cccc(F)c1)C(=O)O; Phe(3-Me) = Cc1cccc(C[C@H](N)C(=O)O)c1; γGlu = O=C(O)[C@H](CCC(=O)[*:2])N[*:1]; NH(CH2)12COOH = O=C(O)CCCCCCCCCCCCN*; Val(3-OH) = CC(C)(O)[C@H](N)C(=O)O; aIle = CC[C@@H](C)[C@H](N)C(=O)O; hArg = N=C(N)NCCCC[C@H](N)C(=O)O; 4Pal = N[C@@H](Cc1ccncc1)C(=O)O; Aad = N[C@@H](CCCC(=O)O)C(=O)O; Cha = N[C@@H](CC1CCCCC1)C(=O)O; Cit = NC(=O)NCCC[C@H](N)C(=O)O; Ile(3ξ) = CCC(C)[C@H](N)C(=O)O; Thr(3ξ) = CC(O)[C@H](N)C(=O)O; Chg = N[C@H](C(=O)O)C1CCCCC1; Carboxymethyl = O=C(O)C*; NMeA = CN[C@@H](C)C(=O)O; Orn = NCCC[C@H](N)C(=O)O; Aun = NCCCCCCCCCCC(=O)O; Dab = NCC[C@H](N)C(=O)O; AEEA = NCCOCCOCC(=O)O
These molecules were tested against T1, PD-1/PD-L1 interaction (PE-labeled human PD-L1-Ig binding to Jurkat cell line over-expressing human PD-1) (Homo sapiens, UniProt Q15116) (assay: Jurkat-PD-1 Cell Binding High-Content Screening Assay (CBA)). Conditions: Jurkat-hPD-1 cells, PE-labeled PD-L1-Ig 20 nM final; read-out: Jurkat HPD1 PDL1 IC50.
T1 construct: expressed in transfected cells; host or cells: Jurkat
In short: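 Read-out: high-content imaging of cell-bound PE fluorescence, with Hoechst 33342 nuclear counterstain after paraformaldehyde fixation. Before labeled ligand (20 nM final, 1 h) was added, compound sat on the cells for 2 h at 37 °C in DMEM/10% FCS.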

T1 sequence (Q15116 25-288): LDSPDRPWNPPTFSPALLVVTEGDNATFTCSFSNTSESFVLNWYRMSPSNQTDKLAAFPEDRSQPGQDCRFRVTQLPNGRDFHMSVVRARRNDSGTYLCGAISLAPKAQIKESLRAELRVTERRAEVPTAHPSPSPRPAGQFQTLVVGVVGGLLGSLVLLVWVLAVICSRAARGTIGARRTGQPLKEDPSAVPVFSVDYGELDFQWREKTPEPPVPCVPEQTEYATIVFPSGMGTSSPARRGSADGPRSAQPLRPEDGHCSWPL

IC50 [nM]	Structure (SMILES)
240	Cc1cccc(C[C@@H]2NC(=O)[C@H](CC(=O)O)NC(=O)[C@H](Cc3ccc(OCC(=O)O)cc3)NC(=O)[C@H]([C@@H](C)O)NC(=O)CSC[C@@H](C(=O)N[C@H](C)C(=O)NCCCCCCCCCCC(=O)O)NC(=O)[C@H](CCC(=O)O)NC(=O)[C@H](C(C)(C)O)NC(=O)[C@H](CC3CCCCC3)NC(=O)[C@H](CCN)NC(=O)[C@@H](CC(C)C)NC(=O)[C@H](C)N(C)C(=O)[C@H](Cc3ccc(OCC(=O)O)cc3)NC(=O)[C@H](Cc3ccc(-c4ccccc4)cc3)NC(=O)[C@H](Cc3ccc(OCC(=O)O)cc3)NC2=O)c1 [Example 1421] ({CH2CO}-TY(Carboxymethyl)D[Phe(3-Me)]Y(Carboxymethyl)[Bip]Y(Carboxymethyl)[NMeA][dL][Dab][Cha][Val(3-OH)]EC[dA][Aun]-OH; thioether N-14)
30.6	Cc1cccc(C[C@@H]2NC(=O)[C@H](CC(=O)O)NC(=O)[C@H](Cc3ccc(OCC(=O)O)cc3)NC(=O)[C@H](CCN)NC(=O)CSC[C@@H](C(=O)N[C@@H](CCN)C(=O)NCCCCCCCCCCC(=O)O)NC(=O)[C@H](CO)NC(=O)[C@H](C(C)(C)O)NC(=O)[C@H](CC3CCCCC3)NC(=O)[C@H](CCN)NC(=O)[C@@H](CC(C)C)NC(=O)[C@H](C)N(C)C(=O)[C@H](Cc3ccc(OCC(=O)O)cc3)NC(=O)[C@H](Cc3ccc(-c4ccccc4)cc3)NC(=O)[C@H](Cc3cccc(F)c3)NC2=O)c1 [Example 1310] ({CH2CO}-[Dab]Y(Carboxymethyl)D[Phe(3-Me)][Phe(3-F)][Bip]Y(Carboxymethyl)[NMeA][dL][Dab][Cha][Val(3-OH)]SC[Dab][Aun]-OH; thioether N-14)
56.5	CC(C)C[C@H]1NC(=O)[C@H](C)N(C)C(=O)[C@H](Cc2ccc(OCC(=O)O)cc2)NC(=O)[C@H](Cc2ccc(-c3ccccc3)cc2)NC(=O)[C@H](Cc2ccc(OCC(=O)O)cc2)NC(=O)[C@H](Cc2c[nH]c3ccccc23)NC(=O)[C@H](CC(=O)O)NC(=O)[C@H](Cc2ccc(OCC(=O)O)cc2)NC(=O)[C@H]([C@@H](C)O)NC(=O)CSC[C@@H](C(=O)N[C@@H](CCCN)C(=O)NCCOCCOCC(=O)NCCCCCCCCCCC(=O)O)NC(=O)[C@H](CO)NC(=O)[C@H](C(C)C)NC(=O)[C@H](CC2CCCCC2)NC(=O)[C@H](CCN)NC1=O [Example 1395] ({CH2CO}-TY(Carboxymethyl)DWY(Carboxymethyl)[Bip]Y(Carboxymethyl)[NMeA][dL][Dab][Cha]VSC[Orn][AEEA][Aun]-OH; thioether N-14)
21.4	CC(C)C[C@H]1NC(=O)[C@H](C)N(C)C(=O)[C@H](CCC(N)=O)NC(=O)[C@H](Cc2ccc(-c3ccccc3)cc2)NC(=O)[C@H](Cc2ccc(C(=O)O)cc2)NC(=O)[C@H](Cc2cccc(C(F)(F)F)c2)NC(=O)[C@H](CC(=O)O)NC(=O)[C@H](Cc2ccc(OCC(=O)O)cc2)NC(=O)[C@H](Cc2ccc(C(=O)O)cc2)NC(=O)CSC[C@@H](C(=O)N[C@@H](CCN)C(=O)NCCCCCCCCCCCCC(=O)O)NC(=O)[C@H](CCC(=O)O)NC(=O)[C@H](C(C)C)NC(=O)[C@H](CC2CCCCC2)NC(=O)[C@H](CCN)NC1=O [Example 1143] ({CH2CO}-[Phe(4-COOH)]Y(Carboxymethyl)D[Phe(3-CF3)][Phe(4-COOH)][Bip]Q[NMeA][dL][Dab][Cha]VEC[Dab]-{NH(CH2)12COOH}; thioether N-14)
17.6	Cc1cccc(C[C@@H]2NC(=O)[C@H](CC(=O)O)NC(=O)[C@H](Cc3ccc(C(=O)O)cc3)NC(=O)[C@H](CCN)NC(=O)CSC[C@@H](C(=O)N[C@@H](CCN)C(=O)NCCCCCCCCCCC(=O)O)NC(=O)[C@H](CO)NC(=O)[C@H](C(C)(C)O)NC(=O)[C@H](CC3CCCCC3)NC(=O)[C@H](CCN)NC(=O)[C@@H](CC(C)C)NC(=O)[C@H](C)N(C)C(=O)[C@H](Cc3ccc(OCC(=O)O)cc3)NC(=O)[C@H](Cc3ccc(-c4ccccc4)cc3)NC(=O)[C@H](C3CCCCC3)NC2=O)c1 [Example 1302] ({CH2CO}-[Dab][Phe(4-COOH)]D[Phe(3-Me)][Chg][Bip]Y(Carboxymethyl)[NMeA][dL][Dab][Cha][Val(3-OH)]SC[Dab][Aun]-OH; thioether N-14)
14.4	Cc1cccc(C[C@@H]2NC(=O)[C@H](CC(=O)O)NC(=O)[C@H](Cc3ccc(OCC(=O)O)cc3)NC(=O)[C@H](C(C)O)NC(=O)CSC[C@@H](C(=O)N[C@@H](CCN)C(=O)NCCOCCOCC(=O)NCCCCCCCCCCC(=O)O)NC(=O)[C@H](CCCC(=O)O)NC(=O)[C@H](C(C)C)NC(=O)[C@H](CC3CCCCC3)NC(=O)[C@H](CCN)NC(=O)[C@@H](CC(C)C)NC(=O)[C@H](C)N(C)C(=O)[C@H](Cc3ccc(OCC(=O)O)cc3)NC(=O)[C@H](Cc3ccc(-c4ccccc4)cc3)NC(=O)[C@H](Cc3ccc(C(=O)O)cc3)NC2=O)c1 (stereo partly drawn) [Example 2476] ({CH2CO}-[Thr(3ξ)]Y(Carboxymethyl)D[Phe(3-Me)][Phe(4-COOH)][Bip]Y(Carboxymethyl)[NMeA][dL][Dab][Cha]V[Aad]C[Dab][AEEA][Aun]-OH; thioether N-14)
14.1	CCC(C)[C@@H]1NC(=O)[C@H](Cc2ccc(-c3ccccc3)cc2)NC(=O)[C@H](C(C)C)NC(=O)[C@H](Cc2c[nH]c3ccccc23)NC(=O)[C@H](CC(=O)O)NC(=O)[C@H](Cc2ccc(OCC(=O)O)cc2)NC(=O)[C@H](Cc2ccncc2)NC(=O)CSC[C@@H](C(=O)N[C@@H](CCCN)C(=O)NCCOCCOCC(=O)NCCCCCCCCCCC(=O)O)NC(=O)[C@H](C(C)O)NC(=O)[C@H](C(C)C)NC(=O)[C@H](CC2CCCCC2)NC(=O)[C@H](CCN)NC(=O)[C@@H](CC(C)C)NC(=O)[C@H](C)N(C)C1=O (stereo partly drawn) [Example 2104] ({CH2CO}-[4Pal]Y(Carboxymethyl)DWV[Bip][Ile(3ξ)][NMeA][dL][Dab][Cha]V[Thr(3ξ)]C[Orn][AEEA][Aun]-OH; thioether N-14)
12.1	CC(C)C[C@@H]1NC(=O)[C@H](Cc2c[nH]c3ccccc23)NC(=O)[C@H](CC(=O)O)NC(=O)[C@H](Cc2ccc(C(=O)O)cc2)NC(=O)[C@H](Cc2ccc(OCC(=O)O)cc2)NC(=O)CSC[C@@H](C(=O)N[C@@H](CCN)C(=O)NCCCCCCCCCCC(=O)O)NC(=O)[C@H](CCCNC(N)=O)NC(=O)[C@H](C(C)C)NC(=O)[C@H](CC2CCCCC2)NC(=O)[C@H](CCN)NC(=O)[C@@H](CC(C)C)NC(=O)[C@H](C)N(C)C(=O)[C@H](C(C)C)NC(=O)[C@H](Cc2ccc(-c3ccccc3)cc2)NC1=O [Example 2188] ({CH2CO}-Y(Carboxymethyl)[Phe(4-COOH)]DWL[Bip]V[NMeA][dL][Dab][Cha]V[Cit]C[Dab][Aun]-OH; thioether N-14)
21.1	CC(C)C[C@@H]1NC(=O)[C@H](Cc2c[nH]c3ccccc23)NC(=O)[C@H](CC(=O)O)NC(=O)[C@H](Cc2ccc(OCC(=O)O)cc2)NC(=O)[C@H](CCCCNC(=N)N)NC(=O)CSC[C@@H](C(=O)NCC(=O)NCCOCCOCC(=O)N[C@@H](CCCCN)C(=O)NCCCCCCCCCCC(=O)O)NC(=O)[C@H](CCCNC(N)=O)NC(=O)[C@H](C(C)C)NC(=O)[C@H](CC2CCCCC2)NC(=O)[C@H](CCN)NC(=O)[C@@H](CC(C)C)NC(=O)[C@H](C)N(C)C(=O)[C@H](C(C)C)NC(=O)[C@H](Cc2ccc(-c3ccccc3)cc2)NC1=O [Example 2181] ({CH2CO}-[hArg]Y(Carboxymethyl)DWL[Bip]V[NMeA][dL][Dab][Cha]V[Cit]CG[AEEA]K[Aun]-OH; thioether N-14)
38.3	CC[C@@H](C)[C@@H]1NC(=O)[C@H](Cc2ccc(-c3ccccc3)cc2)NC(=O)[C@H](C(C)C)NC(=O)[C@H](Cc2c[nH]c3ccccc23)NC(=O)[C@H](CC(=O)O)NC(=O)[C@H](Cc2ccc(OCC(=O)O)cc2)NC(=O)[C@H](CCCNC(N)=O)NC(=O)CSC[C@@H](C(=O)N[C@H](CC(N)=O)C(=O)NCCOCCOCC(=O)N[C@@H](CCC(=O)NCCOCCOCC(=O)N[C@@H](CCC(=O)NCCOCCOCC(=O)N[C@@H](CCCN)C(=O)NCCCCCCCCCCC(=O)O)C(=O)O)C(=O)O)NC(=O)[C@H](CO)NC(=O)[C@H](C(C)C)NC(=O)[C@H](CC2CCCCC2)NC(=O)[C@H](CC(N)=O)NC(=O)[C@@H](CC(C)C)NC(=O)[C@H](C)N(C)C1=O [Example 2024] ({CH2CO}-[Cit]Y(Carboxymethyl)DWV[Bip][aIle][NMeA][dL]N[Cha]VSC[dN][AEEA][γGlu][AEEA][γGlu][AEEA][Orn][Aun]-OH; thioether N-14)

Same assay, conditions: PE-labeled PD-L1-Ig 20 nM final, Jurkat-hPD-1 cells; read-out: Jurkat HPD1 PDL1 IC50

IC50 [nM]	Structure (SMILES)
192	CC(C)C[C@H]1NC(=O)[C@H](C)N(C)C(=O)[C@H](Cc2ccc(OCC(=O)O)cc2)NC(=O)[C@H](Cc2ccc(-c3ccccc3)cc2)NC(=O)[C@H](Cc2ccc(C(=O)O)cc2)NC(=O)[C@H](Cc2cccc(C(F)(F)F)c2)NC(=O)[C@H](CC(=O)O)NC(=O)[C@H](Cc2ccc(OCC(=O)O)cc2)NC(=O)[C@H](C(C)O)NC(=O)CSC[C@@H](C(=O)N[C@@H](CCN)C(=O)NCCCCCCCCCCCCCCC(=O)O)NC(=O)[C@H](CCC(=O)O)NC(=O)[C@H](C(C)C)NC(=O)[C@H](CC2CCCCC2)NC(=O)[C@H](CCN)NC1=O (stereo partly drawn) [Example 2602] ({CH2CO}-[Thr(3ξ)]Y(Carboxymethyl)D[Phe(3-CF3)][Phe(4-COOH)][Bip]Y(Carboxymethyl)[NMeA][dL][Dab][Cha]VEC[Dab]-{NH(CH2)14COOH}; thioether N-14)
60	CC(=O)NCCCC[C@@H]1NC(=O)[C@H](C(C)(C)O)NC(=O)[C@H](CC2CCCCC2)NC(=O)[C@H](CCN)NC(=O)[C@@H](CC(C)C)NC(=O)[C@H](C)N(C)C(=O)[C@H](CCC(N)=O)NC(=O)[C@H](Cc2ccc(-c3ccccc3)cc2)NC(=O)[C@H](Cc2ccc(C(=O)O)cc2)NC(=O)[C@H](Cc2cccc(C(F)(F)F)c2)NC(=O)[C@H](CC(=O)O)NC(=O)[C@H](Cc2ccc(OCC(=O)O)cc2)NC(=O)[C@H](Cc2ccc(C(F)(F)F)cc2)NC(=O)CSC[C@@H](C(=O)N[C@@H](CCN)C(=O)NCCOCCOCC(=O)NCCCCCCCCCCCCC(=O)O)NC1=O [Example 2611] ({CH2CO}-[Phe(4-CF3)]Y(Carboxymethyl)D[Phe(3-CF3)][Phe(4-COOH)][Bip]Q[NMeA][dL][Dab][Cha][Val(3-OH)]K(Ac)C[Dab][AEEA]-{NH(CH2)12COOH}; thioether N-14)

Source: US20260070945A1, “MACROCYCLIC IMMUNOMODULATORS” (Bristol-Myers Squibb Company, priority 2022, published 2026)
